# According to BindingDB's records for doi:10.1021/jm00113a025 (Merck Sharp and Dohme Research Laboratories, 1991):
# Molecular target: T1, Dimer of Gag-Pol polyprotein [489-587] (Human immunodeficiency virus 1, UniProt P04585)
# T1 construct: 489-587
# Test: Protease Inhibition Assay
# Details: pH 5.5; 30 °C
# Experimental: Sensitivity of HIV-1 protease activity to protease inhibitors was determined by a peptide substrate cleavage assay. Protease products were analyzed on a reverse-phase high-pressure liquid chromatograph.
row,SMILES,IC50 [nM]
1,"CCC(C)[C@H](NC(=O)[C@H](Cc1ccccc1)C[C@H](O)[C@H](Cc1ccccc1)NC(=O)OC(C)(C)C)C(=O)N[C@@H](Cc1ccccc1)C(N)=O (stereo partly drawn) [tert-butyl N-[(2S,3S,5R)-5-benzyl-5-{[(1S,2S)-1-{[(1S)-1-carbamoyl-2-phenylethyl]carbamoyl}-2-methylbutyl]carbamoyl}-3-hydroxy-1-phenylpentan-2-yl]carbamate]",0.25
2,CC(C)C[C@H](NC(=O)[C@H](Cc1ccccc1)C[C@H](O)[C@H](Cc1ccccc1)NC(=O)OC(C)(C)C)C(=O)N[C@@H](Cc1ccccc1)C(N)=O [Hydroxyethylene dipeptide isostere],0.6
